# Molecular target: GABA-A receptor; anion channel (Homo sapiens) (UniProt P14867+P47870+P18507+P28472+P48169+Q99928+Q9UN88+P34903+O00591+O14764+Q8N1C3+P18505+P78334+P47869+P31644+Q16445)
# Assay: Gamma-aminobutyric acid A receptor modulating activity (expressed as biological activity).
# Type: protein-complex assay
row,Compound,BA
1,C=CC[C@H]1C(=O)OC[C@H]1NCc1ccccc1,73
2,CCCC1(CCC)C(=O)OC[C@H]1NS(=O)(=O)c1ccc(C(F)(F)F)cc1,-44
3,C=CC[C@@H]1C(=O)OC[C@H]1NCc1ccccc1,-1
4,CCCC1(CCC)C(=O)OC[C@H]1NS(=O)(=O)c1ccc2ccccc2c1,4
5,CCCC1(CCC)C(=O)OC[C@H]1NS(=O)(=O)c1ccc(OC)cc1,-22
6,O=C1C[C@H](NCc2ccccc2)CO1,0
7,C=CCC1(CC=C)C(=O)OC[C@H]1NCc1ccccc1,115
8,CCCC1(CCC)C(=O)OC[C@H]1NS(=O)(=O)c1ccc(Cl)cc1,23
9,O=C1C[C@H](NC(=O)OCc2ccccc2)CO1,47

# Other lines, results leading:
row,BA,Compound
1,765,C=CCOC(=O)N[C@@H]1COC(=O)C1(CCC)CCC
2,-1,CCCC1(CCC)C(=O)OC[C@H]1NS(=O)(=O)N(C)C
3,420,CCCC1(CCC)C(=O)OC[C@H]1NC(=O)c1ccccc1
4,426,CCCC1(CCC)C(=O)OC[C@H]1NC(=O)OCC
5,104,CCCC1(CCC)C(=O)OC[C@H]1NC(=O)OCc1ccccc1
6,-16,CCCC1(CCC)C(=O)OC[C@H]1NS(=O)(=O)c1cccs1
7,330,CCCC1(CCC)C(=O)OC[C@H]1NC(=O)Oc1ccccc1
8,279,"CCCC1(CCC)C(=O)OCC1NC(=O)OCc1ccccc1 (single isomer, unassigned)"
9,46,CCCC1(CCC)C(=O)OC[C@H]1NC(=O)OC(C)(C)C

# From ChEMBL document CHEMBL1137847, “3-D-QSAR of N-substituted 4-amino-3,3-dialkyl-2(3H)-furanone GABA receptor modulators using molecular field analysis and receptor surface modelling study” (Bioorg Med Chem Lett, 2004)
